The text below walks through data of patent US20140228299A1, “PROPHYLACTIC AND THERAPEUTIC AGENT FOR NEUROLOGICAL DISEASES USING LIPOPROTEINS AND PROPHYLACTIC AND THERAPEUTIC METHOD FOR NEUROLOGICAL DISEASES” (National University Corporation Tokyo Medical and Dental …, priority 2011, published 2014).

For one experiment, the system named is retinal ganglion cells. Nature of the experiment: Glutamic acid-induced apoptosis of cultured retinal ganglion cells (Hoechst 33342 or calcein AM/propidium iodide staining). The format is cell-based, rat. On the procedure:
The primary culture of the retinal glia cells was carried out using two-day-old Sprague Dawley (SD) baby rats in accordance with a somewhat modified method (Hayashi et al., J. Biol. Chem. 2009) of the method of Barres et al. (Barres, et al., 1988). The isolated retinal glia cells (RGC) were suspended in a base culture medium of a RGC medium (1 mM glutamine, 5 μg/mL insulin, 60 μg/mL N-acetylcysteine, 62 ng/mL progesterone, 16 μg/mL putrescine, 40 ng/mL sodium selenite, 0.1 mg/mL bovine serum albumin, 40 ng/mL triiodothyronine, 0.1 mg/mL transferrin, 1 mM sodium pyruvate, 2% B27 supplement (Invitrogen, Carlsbad, Calif.), 10 μM forskolin (Sigma, St. Louis, Mo.), 50 ng/mL brain-derived neurotrophic factor (BDNF; PeproTech, Rocky Hill, N.J.), 50 ng/mL ciliary neurotrophic factor (CNTF; Peprotech), and 50 ng/mL basic fibroblast growth factor (bFGF; PeproTech). A 96-well plate was coated with poly-d-lysine (Sigma) and laminin (Sigma), and RGC was placed at the rate of 5,000 cells per well for the 96-well place, 5,000 cells per each culture insert for microdish, or 15,000 cells per dish for compartmentalized culture, followed by incubating for at least 10 days before experimentation.
In the figure, Cant represents a non-treated group, Glu represents a group with 300 μM glutamic acid added, and +glial LP represents a group with 300 μM glutamate+glia-cell-derived lipoprotein containing apolipoprotein E added. Glial LP was added in the concentration of 1 μg cholesterol/mL. After treatment, the rate of apoptosis-like cells was computed by observing the aggregation of the nuclei (a: nuclear staining with Hoechst 33342) or the sustained impermeability of esterase activity/membrane (b: calcein AM/Propidium Iodide staining) in 24 hours.
The induction and detection of apoptosis in RGC were performed in the manner as described below. Specifically, RGC was washed twice with Hanks' balanced salt solution (HBSS) containing 2.4 mM CaCl2 and 20 mM HEPES, but not containing magnesium, and incubated at 37° C. for 2 hours in a medium prepared by adding 300 μM glutamate and 10 μM glycine to the above Hanks' balanced salt solution. After treatment with glutamate, RGC was incubated at 37° C. for 22 hours in a RGC culture medium containing no forskolin, BDNF, CNTF and bFGF. In order to detect apoptosis, RGC was stained with 1 μg/mL of Hoechst 33342 (346-07951, Dojindo, Kumamoto, Japan) or 1 μg/mL of calcein-AM/propidium iodide (341-07381, Dojindo). The fluorescence images were observed by Olympus IX71 microscope. The fragmented or aggregated nuclei stained with the above Hoechst reagent were counted as apoptotic nuclei, and round and smooth nuclei were counted as sound nuclei. As the sound nuclei were not stained with propidium iodide, the nuclei stained with propidium iodide were counted as apoptotic nuclei. More than 300 nuclei were counted in each group.
The apoptosis of RGC was measured in the following manner. The RGC subjected to the primary incubated was incubated two times at 37° C. for 15 minutes using Hanks' Balanced Salt Solution (HBSS) containing 2.4 mM CaCl2 and 20 mM 4-(2-hydroxyethyl)-pyperazine-1-ethanesulfonic acid (HEPES) but containing no magnesium and then washed. […], the magnesium was removed from the washing solution. Thereafter, the RGC was treated or not treated with […] (a co-activating agent for the NMDA receptor) in HBSS containing 2.4 mM CaCl2 and 20 mM HEPES (without magnesium) and then incubated at 37° C. for 2 hours. A control (HBSS containing 2.4 mM CaCl2 and 20 mM HEPES (without containing magnesium)) or the RGC treated or not treated with glutamic acid was incubated at 37° C. for 22 hours in the same medium as used for the RGC (without forskolin, brain-derived neurotrophic factor, ciliary neurotrophic factor and basic fibroblast growth factor). […]

Experiment [1] concerns retinal ganglion cells of GLAST knockout mouse. Kind of experiment: Intravitreal administration to GLAST knockout mouse (normal-pressure glaucoma model), counting of retinal ganglion cells. The format is in vivo. The protocol: This example is an experiment to investigate whether the reconstituted lipoprotein containing apolipoprotein E3 (LP) inhibits apoptosis of the […] of a GLAST knockout mouse as a normal-pressure glaucoma model animal. […] The eyeball was removed at the time of six weeks, followed by fixing with paraffin, staining with hematoxylin-eosin, and counting the retinal glia cells on the retina.
Three-week-old GLAST+/− or GLAST−/− mice were anesthetized by intraperitoneal injection of 50 mg/kg of pentobarbital sodium. […]
The eyeball of a six-week-old mouse was removed and fixed overnight at 4° C. using Super Fix (KY-500, Kurabo. Osaka), followed by removing the cornea and the crystalline lens under a stereoscopic microscope. […] Five sections were selected from each of the continuous sections and the number of the cells within the glia cell layer was counted in a range extending from one end of the retinal section to the other end through the optic nerve. More than 2,000 cells were counted on 10 sections of each retina.

“E-LP: reconstituted lipoprotein of 1-palmitoyl-2-oleyl-glycerophosphocoline, cholesterol and recombinant human apolipoprotein E, molar ratio 100:10:1 or 100:0:1”: the “effect on the inhibitory effects of α2-macroglobulin on neuroprotection” value in the experiment with retinal ganglion cells (100 nM a2M, E-LP 100-3,000 ng protein/mL, Glu, Hoechst 24 hours) was “inhibited”. For the same substance, the “protection of RGC from Glu-induced neurotoxicity, dose dependence” value with retinal ganglion cells (RGC incubated with E-LP 15 minutes before Glu) is recorded as “protected the RGC in a dose-dependent manner”. Further, the “RGC existence in Glast+/− and Glast−/− mice” value in experiment [1] (1 μl of 1.5 μg protein/mL E-LP into vitreous body, three-week-old injected, six-week-old examined) is given as “recovery”.
For the substance “LP: reconstituted lipoprotein of POPC, cholesterol and recombinant human apolipoprotein E3”, the “difference in neuroprotective effects between apoE isoforms in RGC treated with glutamic acid” value with retinal ganglion cells (100 ng protein/mL, 15 minutes before Glu) is listed as “no difference”. Also, the “apoptosis of retinal cells induced by glutamic acid (apoptosis-like cells)” value in the experiment with retinal ganglion cells (added at 100 ng protein/mL, Hoechst 33342) is recorded as “inhibited the apoptosis”. Moreover, in experiment [1] (LP (100 ng protein/mL) into vitreous body at three weeks, eyeball removed at six weeks), the “apoptosis of the retinal cells of GLAST knockout mouse” value is “inhibited apoptosis”.
